# Laboratory results reported in ChEMBL document CHEMBL1201862, “PubChem BioAssay data set” (2004).
# Active and inactive are the calls of the source.
# Key:
# Cytochrome P450 2C19 = Cytochrome P450 2C19 (Homo sapiens, UniProt P33261); test: Cytochrome panel assay with activity outcomes. Panel member name: p450-cyp2c19 Compounds with AC50 equal or less than 10 uM are considered active; assay type: functional
# [1] = molecular target: T1, Heat shock factor protein 1 (Mus musculus, UniProt P38532); test: decrease of HSF1-responsive luciferase luminescence – cell-based, NIH3T3, dose retest, confirmation (AID 2382); assay type: functional;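 further: NIH3T3 fibroblasts with HSF1-driven luciferase reporter stressed by proteasome inhibitor MG132; luminescence from HSF1-driven luciferase expression after 8 hours of MG132 stress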
# T1 sequence (P38532 whole entry): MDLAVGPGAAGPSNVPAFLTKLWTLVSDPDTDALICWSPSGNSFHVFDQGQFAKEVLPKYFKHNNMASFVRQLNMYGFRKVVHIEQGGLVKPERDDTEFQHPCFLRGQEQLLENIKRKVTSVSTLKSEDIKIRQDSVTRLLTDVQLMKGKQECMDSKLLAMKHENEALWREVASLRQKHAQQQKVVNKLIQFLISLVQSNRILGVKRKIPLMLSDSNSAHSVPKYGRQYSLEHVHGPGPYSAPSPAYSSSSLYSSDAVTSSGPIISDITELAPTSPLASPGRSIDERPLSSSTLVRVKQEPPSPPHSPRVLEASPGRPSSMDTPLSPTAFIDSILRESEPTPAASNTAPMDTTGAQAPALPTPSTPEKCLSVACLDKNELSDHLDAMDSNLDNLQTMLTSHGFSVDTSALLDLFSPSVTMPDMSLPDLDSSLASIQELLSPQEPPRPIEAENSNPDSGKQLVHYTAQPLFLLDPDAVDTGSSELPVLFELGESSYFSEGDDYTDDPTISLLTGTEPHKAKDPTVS
# [2] = molecular target: T2, RNA-binding protein pos-1 (Caenorhabditis elegans, UniProt G5EF15); test: disruptors of C. elegans POS-1 RNA interaction – biochemical, fluorescence polarization, dose response (AID 1964);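 further: purified POS-1 fused to maltose binding protein made in E. coli; potency of compounds blocking POS-1 binding to fluorescent RNA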
# T2 sequence (G5EF15 whole entry): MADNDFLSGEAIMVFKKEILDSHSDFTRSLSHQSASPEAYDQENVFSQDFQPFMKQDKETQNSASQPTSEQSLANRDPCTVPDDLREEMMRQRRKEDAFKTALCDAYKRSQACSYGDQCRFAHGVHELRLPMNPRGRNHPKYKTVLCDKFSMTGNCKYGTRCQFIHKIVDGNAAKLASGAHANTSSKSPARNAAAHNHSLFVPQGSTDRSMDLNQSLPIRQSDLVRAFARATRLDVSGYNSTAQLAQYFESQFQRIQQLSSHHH
# [3] = molecular target: T3, Zinc finger protein mex-5 (Caenorhabditis elegans, UniProt Q9XUB2); test: potency of MEX-5 RNA-binding blockers – biochemical, C. elegans, fluorescence polarization, dose response (AID 1960)
# T3 sequence (Q9XUB2 whole entry): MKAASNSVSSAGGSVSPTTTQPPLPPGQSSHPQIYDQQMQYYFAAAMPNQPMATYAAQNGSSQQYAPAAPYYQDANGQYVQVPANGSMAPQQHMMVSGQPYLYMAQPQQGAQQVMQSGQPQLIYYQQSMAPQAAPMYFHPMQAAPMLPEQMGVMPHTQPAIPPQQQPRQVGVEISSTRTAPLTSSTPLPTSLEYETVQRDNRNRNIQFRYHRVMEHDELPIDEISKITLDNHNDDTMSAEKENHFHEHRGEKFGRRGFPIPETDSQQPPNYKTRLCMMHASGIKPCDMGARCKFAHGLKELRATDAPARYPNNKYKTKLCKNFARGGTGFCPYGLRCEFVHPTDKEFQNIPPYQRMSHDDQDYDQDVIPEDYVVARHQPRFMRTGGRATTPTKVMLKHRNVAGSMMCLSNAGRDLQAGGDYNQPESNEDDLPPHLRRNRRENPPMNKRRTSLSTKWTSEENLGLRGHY
# [4] = molecular target: T4, Corticotropin-releasing factor receptor 2/Corticotropin-releasing factor-binding protein (Homo sapiens, UniProt P24387+Q13324); test: activators of CRF receptor 2 with binding protein – uHTS hits, confirmation (AID 602473); assay type: functional; settings: read-out: EC50_Mean
# T4 sequence (Q13324 whole entry): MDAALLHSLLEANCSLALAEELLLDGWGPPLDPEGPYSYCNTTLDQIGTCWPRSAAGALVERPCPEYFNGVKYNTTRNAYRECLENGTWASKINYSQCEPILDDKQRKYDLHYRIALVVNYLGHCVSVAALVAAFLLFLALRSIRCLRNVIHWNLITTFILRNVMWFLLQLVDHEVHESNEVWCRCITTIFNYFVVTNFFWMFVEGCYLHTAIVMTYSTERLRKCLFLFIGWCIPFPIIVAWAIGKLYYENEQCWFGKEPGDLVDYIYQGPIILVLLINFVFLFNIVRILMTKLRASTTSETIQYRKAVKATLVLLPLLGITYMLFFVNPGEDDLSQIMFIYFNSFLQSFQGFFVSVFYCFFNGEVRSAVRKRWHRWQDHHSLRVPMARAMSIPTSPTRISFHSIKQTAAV
# T4 sequence (P24387 whole entry): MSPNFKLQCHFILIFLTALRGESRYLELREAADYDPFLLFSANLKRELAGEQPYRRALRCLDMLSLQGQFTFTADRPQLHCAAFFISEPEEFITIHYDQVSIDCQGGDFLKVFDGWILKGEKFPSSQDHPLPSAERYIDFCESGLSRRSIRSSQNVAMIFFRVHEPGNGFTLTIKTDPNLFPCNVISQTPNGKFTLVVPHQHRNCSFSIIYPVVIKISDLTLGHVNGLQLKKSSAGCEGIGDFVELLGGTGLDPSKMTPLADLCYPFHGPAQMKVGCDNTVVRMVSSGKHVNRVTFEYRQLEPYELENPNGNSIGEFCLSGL
# Streptokinase A = molecular target: T5, Streptokinase A (Streptococcus pyogenes serotype M1, UniProt P10520); test: viability-normalized secreted streptokinase activity reduction – plasminogen activation absorbance, OD405, dose response (AID 1914); assay type: functional, Streptococcus pyogenes M1 GAS;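 further: secreted streptokinase activity via plasminogen activation per viability signal from cell pellet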
# T5 sequence (P10520 whole entry): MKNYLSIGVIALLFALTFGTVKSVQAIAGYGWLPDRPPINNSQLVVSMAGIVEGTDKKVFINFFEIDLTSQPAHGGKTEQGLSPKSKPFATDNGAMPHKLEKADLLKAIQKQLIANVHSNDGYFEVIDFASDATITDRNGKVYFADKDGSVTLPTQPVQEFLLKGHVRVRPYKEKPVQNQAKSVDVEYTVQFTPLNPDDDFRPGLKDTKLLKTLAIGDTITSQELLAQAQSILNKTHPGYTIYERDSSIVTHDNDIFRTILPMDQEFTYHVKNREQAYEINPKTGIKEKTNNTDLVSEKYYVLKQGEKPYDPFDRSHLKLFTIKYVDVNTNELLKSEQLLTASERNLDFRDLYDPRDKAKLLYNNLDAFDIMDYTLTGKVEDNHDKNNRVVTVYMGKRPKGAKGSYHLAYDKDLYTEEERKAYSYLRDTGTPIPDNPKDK
# Streptococcus = test: GAS UMAA2166 growth inhibition – luminescence, BacTiterGlo, counter-screen for streptokinase expression inhibitor project, dose response (AID 1915); assay type: functional, organism-based;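 further: potency for reduction of bacterial viability or growth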
# INS1 = test: INS-1E survival protection against cytokine death – cell-based, luminescence, retest, dose response (AID 449756); assay type: functional; settings: Rattus norvegicus;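 further: cell death triggered by IL-1 beta plus TNF-alpha plus IFN-gamma mixture; protective hits raise ATP signal compared with cytokine alone wells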
# [5] = test system: Streptococcus sp. 'group A'; test: Streptococcus pyogenes SK(-)GAS viability under kanamycin – luminescence, BacTiterGlo, confirmation, counter-screen for streptokinase expression inhibitor project, dose response (AID 1900); assay type: functional, organism-based
# Cytochrome P450 2C9 = Cytochrome P450 2C9 (Homo sapiens, UniProt P11712)
# Sequence of Cytochrome P450 2C9 (P11712 whole entry): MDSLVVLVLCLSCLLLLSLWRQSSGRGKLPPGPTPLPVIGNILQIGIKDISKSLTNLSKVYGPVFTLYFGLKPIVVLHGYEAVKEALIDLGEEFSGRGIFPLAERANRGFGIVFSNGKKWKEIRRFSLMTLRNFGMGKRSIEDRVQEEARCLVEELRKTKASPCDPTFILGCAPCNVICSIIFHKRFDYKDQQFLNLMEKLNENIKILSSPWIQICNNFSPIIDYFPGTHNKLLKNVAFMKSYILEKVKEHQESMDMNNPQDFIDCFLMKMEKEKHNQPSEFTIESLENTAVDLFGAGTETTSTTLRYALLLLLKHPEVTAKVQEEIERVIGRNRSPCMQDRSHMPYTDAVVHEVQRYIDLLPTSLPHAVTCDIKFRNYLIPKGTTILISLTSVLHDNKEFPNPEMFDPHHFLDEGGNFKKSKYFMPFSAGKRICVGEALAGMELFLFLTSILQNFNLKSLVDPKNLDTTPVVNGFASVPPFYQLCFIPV
# [6] = Luminescence Cell-Based Dose Retest to Confirm Inhibitors of Cancer Stem Cells. [Related pubchem assays (depositor defined):AID2717, AID2721]; assay type: functional; settings: Homo sapiens
# Sequence of Cytochrome P450 2C19 (P33261 whole entry): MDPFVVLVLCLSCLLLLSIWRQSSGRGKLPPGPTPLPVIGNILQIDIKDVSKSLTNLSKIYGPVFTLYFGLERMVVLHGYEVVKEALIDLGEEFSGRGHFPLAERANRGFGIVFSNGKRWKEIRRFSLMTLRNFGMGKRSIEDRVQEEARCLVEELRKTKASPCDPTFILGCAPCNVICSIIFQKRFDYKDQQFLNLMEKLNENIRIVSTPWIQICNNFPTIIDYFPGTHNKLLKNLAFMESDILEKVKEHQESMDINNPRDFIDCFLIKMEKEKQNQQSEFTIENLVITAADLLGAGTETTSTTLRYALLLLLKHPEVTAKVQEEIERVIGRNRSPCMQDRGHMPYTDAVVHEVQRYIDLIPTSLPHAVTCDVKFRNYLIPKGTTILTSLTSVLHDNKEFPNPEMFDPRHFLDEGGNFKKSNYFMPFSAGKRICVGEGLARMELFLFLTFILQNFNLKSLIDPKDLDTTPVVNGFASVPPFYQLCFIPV
structure (smiles),measurement,setting,value
COc1cccc(-c2nnc3sc(-c4ccc(C)cc4)nn23)c1,AC50,Cytochrome P450 2C19; read-out: AC50,6.31 µM (inconclusive)
CCOC(=O)c1ccc(NC(=O)Oc2ccccc2)cc1,EC50,[1],> 195 µM (not active)
O=C(O)CSc1nc(-c2ccccc2)nc2c1oc1ccccc12,EC50,[1],> 195 µM (not active)
O=C(CC1Nc2ccccc2NC1=O)c1ccccc1 (stereo not given),EC50,[2],30.6 µM (active)
same,EC50,[3],103 µM (active)
COc1cc(/N=C/c2c(O)oc3ccccc3c2=O)c(OC)cc1Cl,EC50,[4],> 53 µM (inactive)
same,EC50,[2],> 300 µM (inconclusive)
same,EC50,[3],> 300 µM (inconclusive)
COC(=O)c1ccc2[nH]c3cccc(/C(=C/c4ccccc4)c4ccccc4)c3c2c1,EC50,Streptokinase A,1.43 µM (active)
same,EC50,Streptococcus,3.93 µM (active)
same,AC50,INS1,11.2 µM (active)
same,EC50,[5],0.602 µM (active)
CC(NC(=O)CSc1nc(=O)cc(N)n1CCc1ccccc1)c1ccccc1 (stereo not given),AC50,Cytochrome P450 2C19; read-out: AC50,14.1 µM (inconclusive)
COc1ccccc1NCC(=O)N/N=C/c1c(O)ccc2ccccc12,AC50,INS1,4.94 µM (active)
same,EC50,[2],> 300 µM (not active)
same,EC50,[3],> 150 µM (not active)
Cc1cc([N+](=O)[O-])nn1CC(=O)NNC(=S)Nc1ccc([N+](=O)[O-])cc1,EC50,[2],28.3 µM (active)
same,EC50,[3],5.47 µM (active)
O=C(/C=C\c1ccc2c(c1)OCO2)c1ccc(F)cc1,AC50,Cytochrome P450 2C9,1.58 µM (inconclusive)
CCOC(=O)C1=NOC2C3CC(C12)C1C(=O)N(CCc2ccc(OC)c(OC)c2)C(=O)C31 (stereo not given),EC50,[1],> 195 µM (not active)
Cc1cc(S(=O)(=O)N2CCN=C2c2ccccc2)c(C)cc1Cl,EC50,[1],> 195 µM (not active)
Cc1cc(/C=C2\SC(=O)N(C)C2=O)c(C)n1-c1cccc(C(=O)O)c1,EC50,[2],> 300 µM (not active)
same,EC50,[3],> 300 µM (not active)
COc1ccc(/C=C/C(=O)NC(=S)Nc2ccccc2C(=O)NC2CCCCC2)cc1,AC50,INS1,13.9 µM (active)
CC(=O)OCC(=O)[C@@]1(O)[C@H](C)C[C@@H]2[C@H]3CCC4=CC(=O)C=C[C@]4(C)[C@]3(F)[C@@H](O)C[C@@]21C,AC50,Cytochrome P450 2C9,6.31 µM (inconclusive)
O=C(NC1CCCCC1)c1ccc(COCC(F)(F)F)o1,AC50,Cytochrome P450 2C9,15.8 µM (inconclusive)
Cc1cccc(N2C(=O)CS/C2=N\NC(=O)c2ccc(Br)cc2)c1C,EC50,[1],> 195 µM (not active)
CC(=N/O)/C(C)=N\NC(=O)c1ccccn1,EC50,[1],> 195 µM (not active)
CCCSc1nsc(NC(=O)Nc2ccc(F)cc2F)n1,EC50,Streptokinase A,54.8 µM (inconclusive)
same,EC50,Streptococcus,34.2 µM (active)
same,AC50,INS1,6.57 µM (active)
same,AC50,[6],2.95 µM (active)
same,EC50,[5],17.5 µM (active)
COC(=O)C1=CN(c2ccc(F)c(F)c2)C=C(C(=O)OC)C1c1ccc([N+](=O)[O-])cc1,EC50,[1],> 195 µM (not active)
O=C1CSC(c2cccnc2)N1CC1CC1 (stereo not given),AC50,INS1,> 260 µM (inactive)
CCN(CC)C(=O)CSc1nnc(-c2cc3ccccc3cc2O)n1CC,AC50,Cytochrome P450 2C19; read-out: AC50,15.8 µM (inconclusive)
CN1C(=O)/C(=C/c2ccc3c(c2)OCO3)N=C1c1ccccc1,EC50,[2],> 300 µM (not active)
same,EC50,[3],75.1 µM (inconclusive)
Cc1ccc(NC(=O)CSc2nccc(=O)[nH]2)c(S(=O)(=O)N2CCOCC2)c1,EC50,[2],> 300 µM (not active)
same,EC50,[3],> 300 µM (not active)
O=C1C2CC=C(Cl)CC2C(=O)N1CCc1ccccc1 (stereo not given),EC50,[2],29.4 µM (active)
same,EC50,[3],20.6 µM (active)
CC(=O)Nc1ccccc1Sc1ccc2c3c(cccc13)C(=O)N(c1ccc(C)cc1)C2=O,EC50,[4],> 53 µM (inactive)
O=C(CSc1nnc(CNc2ccccc2)o1)N1CCCc2ccccc21,AC50,Cytochrome P450 2C9,15.8 µM (inconclusive)
CCOC(=O)N1CCN(C(S)=Nc2ccc(C)cc2C)CC1,EC50,[1],> 195 µM (not active)
O=C(COC(=O)Cn1cnc2ccccc2c1=O)Nc1ccc2c(c1)OCO2,AC50,INS1,> 260 µM (inactive)
CCN1CCN(c2nc(C)c3c(n2)CCCC3=O)CC1,AC50,Cytochrome P450 2C19,inconclusive
CC1(c2ccc(Cl)cc2)NC(=O)N(CC(=O)N2CCc3ccccc32)C1=O (stereo not given),EC50,[4],14.1 µM (active)
COC(=O)c1cccc(C(=O)Nc2ccc(C)cc2)n1,AC50,Cytochrome P450 2C9,6.31 µM (inconclusive)
O=C(O)COc1ccc(/C=N/NC(=O)c2ccccc2Br)cc1,EC50,[1],> 195 µM (not active)
O=C1CCC(c2ccccc2)(c2ccccc2)CC1,AC50,Cytochrome P450 2C9,6.31 µM (inconclusive)
CCCCNC(=O)CCC(=O)Nc1ccc2nc(N3CCOCC3)cc(C)c2c1,AC50,Cytochrome P450 2C9,17.8 µM (inconclusive)
Cc1cc(C)nc(NC(=O)COc2cc(Cl)cc(Cl)c2)n1,EC50,[1],71.9 µM (active)
CC(C)(NC(=O)c1cc(Cl)c2ccccc2c1O)C(=O)O,EC50,[1],14.1 µM (active)
CCCOc1ccc(NC(N)=O)cc1OCCC,EC50,[1],> 195 µM (not active)
